Measured values: paper PMC10289334 (PLOS ONE, 2023)

Legend:
MtFBPaseII = target: T1, MtFBPaseII (Mycobacterium tuberculosis, UniProt P9WN21); assay type: binding
T1 construct: gene glpX; wild type; tetramer

FtFBPaseII = target: T2, FtFBPaseII (Francisella tularensis, UniProt Q5NEJ8); settings: low (suboptimal) Mn2+; active site of chain C
T2 construct: gene gplX

[1] = target: Francisella tularensis class II fructose-1,6-bisphosphatase (FtFBPaseII), wild type (Francisella tularensis); test: crystal structure
crystal structure = target: the molecule itself; test: crystal structure

For `O=P(O)(O)OC[C@H]1OC(O)(COP(=O)(O)O)[C@@H](O)[C@@H]1O` (stereo partly shown) [F1,6BP], the “X-ray crystal structure (Form C, 3.7 A)” value (MtFBPaseII) was “The final refined structure confirmed the presence of the F1,6BP substrate in both chains” and the “X-ray crystal structure (Form E, 2.2 A)” value (FtFBPaseII) was “could be interpreted as what appeared to be a substrate molecule bound”.

Work on “Francisella tularensis class II fructose-1,6-bisphosphatase (FtFBPaseII), wild type (enzyme)” yielded a stoichiometry N [1] of 4.

B1: Mycobacterium tuberculosis class II fructose-1,6-bisphosphatase (MtFBPaseII), wild type (enzyme)
chain: MELVRVTEAGAMAAGRWVGRGDKEGGDGAAVDAMRELVNSVSMRGVVVIGEGEKDHAPMLYNGEEVGNGDGPECDFAVDPIDGTTLMSKGMTNAISVLAVADRGTMFDPSAVFYMNKIAVGPDAAHVLDITAPISENIRAVAKVKDLSVRDMTVCILDRPRHAQLIHDVRATGARIRLITDGDVAGAISACRPHSGTDLLAGIGGTPEGIIAAAAIRCMGGAIQAQLAPRDDAERRKALEAGYDLNQVLTTEDLVSGENVFFCATGVTDGDLLKGVRYYPGGCTTHSIVMRSKSGTVRMIEAYHRLSKLNEYSAIDFTGDSSAVYPLP
notes: also called Mt(Mg^2+)FBPaseII
For B1, the “stoichiometry N” value (crystal structure) was 4.
